Experimental data from PubChem BioAssay AID463206 (Broad Institute, 2010).
Calls of active or inactive are those of the source.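 Rule for the calls: active = caspase luminescence falls with dose and the half-maximal concentration AC50 from the fitted curve is at or below a set limit; inconclusive = flat fit at 30 to 70% signal loss, or invalid fit; inactive = AC50 above the limit, or signal rises instead.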

System: INS-1E cytokine-induced caspase-3/7, Caspase-Glo luminescence, 48 h
Assay: suppression of cytokine-driven beta-cell apoptosis – INS-1E rat cells, luminescence, orthogonal assay for beta-cell apoptosis protection project, dose response (AID 463206)

Structure (SMILES) | AC50
O=C(N/N=C(\c1ccccc1)c1cccnc1)c1cccc(F)c1 | > 26 µM (inactive)
COCCn1c(SCC(=O)/C=C2\N(C)c3ccccc3C2(C)C)nnc1-c1ccncc1 | > 26 µM (inactive)
COc1ccc(-c2cc(-c3nc4ccccn4c3NCc3ccccc3)ccc2OC)cc1 | > 26 µM (inactive)
CCOC(=O)C1CCN(C(=O)c2c(C)oc3c2C(=O)c2ccccc2C3=O)CC1 | > 26 µM (inactive)
O=C(Nc1cc(Sc2ccccn2)cc([N+](=O)[O-])c1)c1ccc(Cl)cc1 | > 26 µM (inactive)
CCCN(CCC)C(=O)c1cc([N+](=O)[O-])cc2c1-c1ccc([N+](=O)[O-])cc1C2=C(C#N)C#N | > 26 µM (inactive)
COC1=CC(=O)[C@]2(C=C1OC)OC[C@@H]1Oc3c(ccc4c3C=CC(C)(C)O4)C(=O)[C@@H]12 | > 26 µM (inactive)
C/C(=N\Nc1nc(C)cc(-c2ccccc2)n1)c1ccc(F)cc1 | > 26 µM (inactive)
Cc1ccc(-n2ncc3c2CCCC3NC(=O)c2ocnc2C)cc1C (configuration not stated) | > 26 µM (inactive)
OC(CNC1CCCCC1)COCCOc1ccc(Br)cc1 (configuration not stated) | > 12 µM (inactive)
CCN1C/C(=C/c2ccc(OC)c(O)c2)C(=O)/C(=C/c2ccc(OC)c(O)c2)C1 | > 26 µM (inactive)
CNC1=C(N(C(C)=O)c2ccc(Br)cc2)C(=O)c2ccccc2C1=O | > 26 µM (inactive)
Cn1c(SCC(=O)N/N=C/c2ccc([N+](=O)[O-])s2)nnc1-c1ccc(Cl)cc1 | > 26 µM (inactive)
O=C(Nc1nc2ccccc2s1)c1cc(-c2ccccc2)nn1-c1ccccc1 | > 26 µM (inactive)
CC(C)NC(=S)NC(c1ccccc1)(c1ccccc1)c1ccccc1 | > 26 µM (inactive)
Cc1cccc2sc(NNC(=O)c3ccc(S(=O)(=O)N4CC(C)CC(C)C4)cc3)nc12 (configuration not stated) | > 26 µM (inactive)
COc1cnc(-c2ccccn2)nc1Sc1ccc(C)cc1 | > 26 µM (inactive)
Cc1ccc(Nc2nc(NCc3ccco3)c3ccccc3n2)cc1 | > 12 µM (inactive)
O=C(C1=C[C@@H](c2ccc(C(F)(F)F)cc2)C[C@@H](OCCCCO)O1)N1CCN(Cc2ccccc2)CC1 | > 26 µM (inactive)
CCN(CC)CCOc1ccc2c(c1)C(=NNC(=O)c1ccccn1)c1cc(OCCN(CC)CC)ccc1-2 | > 26 µM (inactive)
CSc1nc(-c2ccccc2)nc(C(Cl)Cl)n1 | 2.7 µM
NC(=O)c1ccccc1OC1CCC1 | > 26 µM (inactive)
Cc1nc2ccccc2nc1N/N=C/c1ccc(O)cc1O | > 26 µM (inactive)
O=C(Oc1c(CN2CCOCC2)cc(Cl)c2cccnc12)c1ccc(F)cc1 | > 26 µM (inactive)
O=[N+]([O-])c1ccc(N2CCN(CCOc3nonc3-c3ccccc3)CC2)c(Cl)c1 | > 26 µM (inactive)

Structure (SMILES) | AC50
CC(C)(C)n1nnnc1C(c1ccc(F)cc1)N(Cc1ccc(F)cc1)Cc1ccco1 (configuration not stated) | > 26 µM (inactive)
COc1cc2c(cc1OC)-c1c(OC)c(OC)c(OC)c3ccnc(c13)C2=O | 7.97 µM
COc1ccccc1NS(=O)(=O)c1cccc(NC(=O)c2[nH]c(C)c(C(C)=O)c2C)c1 | > 26 µM (inactive)
COc1ccc(CNCCC(c2ccc(OC(C)C)cc2)c2ccccc2OC)cc1 (configuration not stated) | > 26 µM (inactive)
COc1ccc(S(=O)(=O)N2CCNCC2)cc1OC | > 26 µM (inactive)
COCC1CCCCN1C(=O)c1cc(COc2ccc3ncccc3c2)on1 (configuration not stated) | > 26 µM (inactive)
CC(=O)N1CCc2cc(S(=O)(=O)NCCC3=CCCCC3)ccc21 | > 12 µM (inactive)
Cc1cccnc1CCNCc1c(C(=O)N2C[C@@H](C)O[C@@H](C)C2)nc2ccc(Cl)cn12 | > 26 µM (inactive)
Cc1cc(C)nc(SCC(=O)Nc2ccnc3ccccc23)n1 | > 26 µM (inactive)
COc1ccc2[nH]c3c(C)c4ccncc4c(C)c3c2c1 | 1.32 µM
CN1/C(=C\C(=O)C[n+]2cccc(Br)c2)C(C)(C)c2ccccc21 | > 26 µM (inactive)
CC1CCC/C=C/C2CC(O)CC2C(O)/C=C/C(=O)O1 (configuration not stated) | > 26 µM (inactive)
Cc1csc2nc(NC(=O)c3ccccc3)sc(=O)c12 | > 26 µM (inactive)
Cc1ccc(N2C(=O)NC(=O)/C(=C\C=C\c3ccco3)C2=O)cc1C | > 26 µM (inactive)
CCc1nnc(NC(=O)c2cccc(C(=O)Nc3nnc(CC)s3)n2)s1 | > 26 µM (inactive)
Cc1cc(C)c2nc(NNC(=O)c3ccc(S(=O)(=O)N4CCc5ccccc5C4)cc3)sc2c1 | > 26 µM (inactive)
CCCOc1ccc(C(=O)C(CN2CCOCC2)c2ccccc2)cc1 (configuration not stated) | > 12 µM (inactive)
Nc1ccc2c(c1)C(=O)C(=O)c1ccccc1-2 | > 26 µM (inactive)
CCN(CC)S(=O)(=O)c1cc([N+](=O)[O-])ccc1NNC(=O)Nc1ccc(Cl)c(Cl)c1 | > 26 µM (inactive)
CCN1CCN(Cc2ccc(NC(=O)c3cc(NC(=O)c4cnn(-c5ccccc5)c4N)cc(OC)c3)cc2C(F)(F)F)CC1 | > 26 µM (inactive)
Oc1ccc(CCNc2ncnc3ccc(Cl)cc23)cc1 | > 26 µM (inactive)
CCN(CC)CCn1c2ccccc2c2cnc(N)c(C#N)c21 | 5.57 µM
Cc1cc2nc(NCCCO)n(CC(=O)c3cc(C(C)(C)C)c(O)c(C(C)(C)C)c3)c2cc1C | > 26 µM (inactive)
CN(C)C(=O)c1ccc(NC(=O)c2cccnc2)cc1 | > 26 µM (inactive)
Clc1ccc2c(N/N=C/c3cccc(Br)c3)ccnc2c1 | > 26 µM (inactive)

Structure (SMILES) | AC50
c1ccc(-[n+]2nc(Nc3cccc4ccccc34)sc2-c2c3ccccc3cc3ccccc23)cc1 | > 26 µM (inactive)
CCCCn1c(=N)n(CC(=O)c2ccc(Br)s2)c2ccccc21 | > 26 µM (inactive)
CCN(CC)S(=O)(=O)c1cc(OC)ccc1N=Nc1ccc(O)c2ncccc12 | > 26 µM (inactive)
CC(C)NC(=S)N/N=C/c1cc(Br)ccc1O | > 26 µM (inactive)
CCCCOc1ccc(-c2cc(C(=O)NNC(=S)NCC)c3ccccc3n2)cc1 | > 26 µM (inactive)
Cc1ccc(-c2c[n+]3c(n2-c2ccccc2)SCC3)cc1 | > 26 µM (inactive)
O=C(Nc1nc2c(F)cc(F)cc2s1)c1ccccn1 | > 26 µM (inactive)
CC(C)(C)n1[nH]c2c3c(ccc2c1=O)C(=O)c1ccccc1C3=O | > 26 µM (inactive)
C=C(C)C(=O)O[C@H]1C/C(C)=C\C(=O)/C=C(\C)[C@H](O)[C@@H]2OC(=O)C(=C)[C@@H]21 | 3 µM
CCC(C)Nc1nc(-c2ccccn2)nc2ccccc12 (configuration not stated) | > 26 µM (inactive)
Cc1oc2c(c1C(=O)N1CCC(C)CC1)C(=O)c1ccccc1C2=O | > 26 µM (inactive)
CCCOCc1ccc(O)c2ncccc12 | > 26 µM (inactive)
CCCCCc1ccc(OCCCC[n+]2ccccc2)c(CCCCC)c1 | > 26 µM (inactive)
CC1(C(=O)OCC(=O)N2c3ccccc3Sc3ccccc32)CC1(Cl)Cl (configuration not stated) | > 26 µM (inactive)
Cc1nnsc1C(=O)N/N=C/c1ccc2ccccc2c1O | > 26 µM (inactive)
Cc1nc(NCCc2ccc(S(N)(=O)=O)cc2)c2c(C)c(C)sc2n1 | > 26 µM (inactive)
CC1=NNC(=O)/C1=C\c1cn(-c2ccccc2)nc1-c1ccc(Cl)cc1 | > 26 µM (inactive)
COc1cccc(COc2cc3ccccc3nc2C)c1 | > 26 µM (inactive)
CCn1c(=O)c(C(=O)Nc2ccccn2)c(O)c2ccccc21 | > 26 µM (inactive)
Cc1ccc(Nc2cc(C)nc(NCc3ccccc3)n2)cc1 | > 12 µM (inactive)
CCCOC(=O)c1ccc(-[n+]2c(-c3ccccc3)cc(-c3ccccc3)cc2-c2ccccc2)cc1 | > 26 µM (inactive)
O=C(NCCOCCOCCNC(=O)c1cccnc1)c1cccnc1 | > 26 µM (inactive)
COc1ccccc1N1CCN(c2ncc(C(=O)N3CCN(c4cccc(Cl)c4)CC3)c3ccccc23)CC1 | > 26 µM (inactive)
CCN(CC)c1ccc(N=Cc2ccc([N+](=O)[O-])o2)cc1 | > 26 µM (inactive)
Cn1cccc1/C=N/NC(=O)Cc1cccs1 | > 26 µM (inactive)

Structure (SMILES) | AC50
Cc1ccc(C(=O)N/C(=C\c2ccc(-c3ccccc3[N+](=O)[O-])o2)C(=O)NCCCN2CCOCC2)cc1 | > 26 µM (inactive)
Cc1ccccc1NC(=O)/C=C/c1ccc([N+](=O)[O-])s1 | > 26 µM (inactive)
Oc1c(C(c2ccccc2Cl)N2CCCC2)ccc2cccnc12 (configuration not stated) | > 26 µM (inactive)
NC1=C(Br)C(=O)c2ccccc2C1=O | > 26 µM (inactive)
O=C(c1cc(COc2cccc(C(F)(F)F)c2)on1)N1CCC(c2ccncc2)CC1 | > 26 µM (inactive)
C=CCc1c(C)nc(C)nc1N/N=C/c1ccc(N(C)C)cc1 | > 26 µM (inactive)
CCN(CC)c1ccc(/C=N/NC(=O)Cc2cccs2)c(O)c1 | > 26 µM (inactive)
CCC1(OC(=O)CN)C(=O)OCc2c1cc1n(c2=O)Cc2cc3ccccc3nc2-1 (configuration not stated) | 0.33 µM
O=C(NC1=C(Nc2ccc(Cl)cc2)C(=O)c2ccccc2C1=O)c1ccccc1 | > 26 µM (inactive)
Nc1ccc(Nc2ccc([N+](=O)[O-])cc2[N+](=O)[O-])cc1 | > 26 µM (inactive)
Cc1cc[n+](C(C)C(=O)c2ccc(-c3ccccc3)cc2)cc1 (configuration not stated) | > 26 µM (inactive)
O=C(Nc1nc2ccc(F)cc2s1)c1ccccn1 | > 26 µM (inactive)
Oc1[nH]c(N=C2N=c3ccccc3=N2)c2ccccc12 | > 26 µM (inactive)
CCOC(=O)c1cnc(-n2nc(C)cc2C)nc1NNc1nc(-c2ccccc2)cc(-c2ccccc2)n1 | > 26 µM (inactive)
O=C(c1cc2sccc2n1Cc1ccc(F)cc1)N1CCN(c2nc3ccccc3s2)CC1 | > 26 µM (inactive)
Cc1cc(C)nc(SCc2ccc(C(=O)N/N=C/c3cccc(O)c3O)cc2)n1 | > 26 µM (inactive)
CC(=O)N(Cc1ccc(F)cc1)C1=C(NCCc2ccccc2)C(=O)c2ccccc2C1=O | > 26 µM (inactive)
Cc1noc(-c2ccc(C(F)(F)F)cc2)c1NC(=O)Nc1ccc(Cl)cc1 | > 26 µM (inactive)
Cc1onc(-c2ccccc2)c1C(=O)NC(=S)NNC(=O)c1ccccc1O | > 26 µM (inactive)
CCCc1sc(N/N=C/c2ccccn2)nc1-c1ccc(Br)cc1 | > 26 µM (inactive)
Cc1cc(-c2n[nH]c(=S)n2/N=C/C(Br)=C/c2ccccc2)n[nH]1 | 12.4 µM
COc1cccc(/C=N/Nc2nc3ccccc3n3cnnc23)c1O | > 26 µM (inactive)
